The source of these data is ChEMBL document CHEMBL1129646, “Structure-activity relationships study of two series of leukotriene B4 antagonists: novel indolyl and naphthyl compounds substituted with a 2-[methyl(2-phenethyl)amino]-2-oxoethyl side chain” (J Med Chem, 1996).

A value given as a limit tells only on which side of the number the result lay.

The nature of assay [1]: LTB4 receptor binding from radioligand binding assay using guinea pig spleen cell membrane.
The target in a further assay is Leukotriene B4 receptor (Homo sapiens, UniProt Q9NPC1+Q15722). Description: LTB4 receptor binding from radioligand binding assay using human intact neutrophils PMN.
Assay [2] has as its target T1, Leukotriene B4 receptor 1 (Homo sapiens, UniProt Q15722). Description: Compound was evaluated for LTB4 receptor binding obtained from radioligand binding assay using human intact neutrophils PMN; No activity.
The target in assay [3] is T1, Leukotriene B4 receptor 1. Put plainly: Compound was evaluated for LTB4 receptor binding, obtained from radioligand binding assay using human intact neutrophils PMN.

T1 sequence (Q15722 whole entry): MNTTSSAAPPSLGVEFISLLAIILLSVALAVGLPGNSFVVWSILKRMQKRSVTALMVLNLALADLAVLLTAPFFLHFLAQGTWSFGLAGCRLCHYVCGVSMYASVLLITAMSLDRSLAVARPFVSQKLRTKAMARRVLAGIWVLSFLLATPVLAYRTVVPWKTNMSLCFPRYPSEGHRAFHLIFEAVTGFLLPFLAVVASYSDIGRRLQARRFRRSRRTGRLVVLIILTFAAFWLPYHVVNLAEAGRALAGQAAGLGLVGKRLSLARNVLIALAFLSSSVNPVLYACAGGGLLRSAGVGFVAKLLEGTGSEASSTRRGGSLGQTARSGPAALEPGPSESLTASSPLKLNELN

In general, IC50 refers to the concentration that inhibits the measured activity by half. A lower IC50 goes with greater potency. For the compound `CN(CCc1ccccc1)C(=O)Cc1cc(CCC(=O)O)cc2c(OCc3ccccc3)cccc12`, in assay [1], the IC50 is 10 nM. For the compound `CC/C(=C\c1cc(CC(=O)N(C)CCc2ccccc2)c2cccc(OCc3ccccc3)c2c1)C(=O)O`, the IC50 on Leukotriene B4 receptor is recorded as 50 nM; in assay [1], 0.8 nM. For `COc1cccc2c(CC(=O)N(C)CCc3ccccc3)cc(C(=O)O)cc12` the same measures were 700 nM and above 30 nM. Consider `CN(CCc1ccccc1)C(=O)Cn1cc(/C=C/C(=O)O)c2cccc(OCc3ccccc3)c21`, for which the values for the IC50 result in assay [2] and in assay [1] were “Not Active” and above 300 nM, respectively. As to `CN(CCc1ccccc1)C(=O)Cc1cc(C(=O)O)cc2cc(OCc3ccccc3)ccc12`, the IC50 on Leukotriene B4 receptor came to 7.75 nM; in assay [1] it was 1.07 nM. Regarding `CN(CCc1ccccc1)C(=O)Cc1cc(CCC(=O)O)cc2c(Oc3ccccc3)cccc12`, the half-inhibitory concentration (IC50) on Leukotriene B4 receptor is given as 250 nM; in assay [1] it was 20 nM. Taken in the same sequence, the figures for `CC/C(=C\c1cn(CC(=O)N(C)CCc2ccccc2)c2ccc(OCc3ccccc3)cc12)C(=O)O` were 7.6 nM and 1.3 nM.

Compound `CN(O)C(=O)c1cc(CC(=O)N(C)CCc2ccccc2)c2cccc(OCc3ccccc3)c2c1` came in with an IC50 in assay [3] of 60 nM. Take `CN(CCc1ccccc1)C(=O)Cn1cc(CCC(=O)O)c2cc(OCc3ccccc3)ccc21`: the IC50 in assay [1] was 40 nM.

Turning to `CN(CCc1ccccc1)C(=O)Cc1cc(C(=O)O)c(OCc2ccccc2)c2ccccc12`, the results for the IC50 (at Leukotriene B4 receptor; in assay [1]) were 80 nM and 6.5 nM, respectively. On to `CN(CCc1ccccc1)C(=O)Cn1cc(/C=C/C=C/C(=O)O)c2cc(OCc3ccccc3)ccc21`, for which the half-maximal inhibitory concentration (IC50) amounted to 19 nM at Leukotriene B4 receptor and 8 nM in assay [1]. In the case of `CN(CCc1ccccc1)C(=O)Cn1cc(C(=O)O)c2cc(OCc3ccccc3)ccc21`, the values for the IC50 (at Leukotriene B4 receptor; in assay [1]) were 26.3 nM and 1.5 nM, respectively. For `CCCCCOc1cccc2c(CC(=O)N(C)CCc3ccccc3)cc(C(=O)O)cc12` the same measures were 9 nM and 0.6 nM. For `CN(CCc1ccccc1)C(=O)Cn1cc(C(=O)O)c2c(OCc3ccccc3)cccc21` the same measures were 20.3 nM and 1.45 nM. As for `CN(CCc1ccccc1)C(=O)Cn1c(C(=O)O)cc2cc(OCc3ccccc3)ccc21`, the IC50 on Leukotriene B4 receptor is reported as 11.2 nM; in assay [1], 2.5 nM. Regarding `CN(CCc1ccccc1)C(=O)Cn1cc(C(=O)c2cccc(C(=O)O)c2)c2cc(OCc3ccccc3)ccc21`, the IC50 at Leukotriene B4 receptor was found to be 8.5 nM; in assay [1], 12 nM. Taken in the same sequence, the figures for `CN(CCc1ccccc1)C(=O)Cn1cc(/C=C/C2N=NN=N2)c2cc(OCc3ccccc3)ccc21` were 19 nM and 4.5 nM. Taken in the same sequence, the figures for `CN(CCc1ccccc1)C(=O)Cn1cc(/C=C/C(=O)O)c2c(OCc3ccccc3)cccc21` were 16.5 nM and 1 nM. For `CN(CCc1ccccc1)C(=O)Cn1cc(/C=C/C=C/C(=O)O)c2c(OCc3ccccc3)cccc21`, the IC50 on Leukotriene B4 receptor is reported as 15 nM; in assay [1], 1.5 nM. Taken in the same sequence, the figures for `Cc1c(C(=O)O)c2cc(OCc3ccccc3)ccc2n1CC(=O)N(C)CCc1ccccc1` were 90 nM and 5 nM. Taken in the same sequence, the figures for `CN(CCc1ccccc1)C(=O)Cn1cc(C(C(=O)O)c2ccccc2)c2c(OCc3ccccc3)cccc21` (stereo not drawn) were 19 nM and 2.5 nM. For the compound `CC/C(=C\c1cn(CC(=O)N(C)CCc2ccccc2)c2cccc(OCc3ccccc3)c12)C(=O)O`, the half-maximal inhibitory concentration (IC50) is 35 nM at Leukotriene B4 receptor and 1.5 nM in assay [1]. `C/C(=C\c1cn(CC(=O)N(C)CCc2ccccc2)c2ccc(OCc3ccccc3)cc12)C(=O)O`: the IC50 on Leukotriene B4 receptor came out at 11 nM; in assay [1], 5 nM.

As to `C/C(=C\c1cn(CC(=O)N(C)CCc2ccccc2)c2cccc(OCc3ccccc3)c12)C(=O)O`, the values for the IC50 (at Leukotriene B4 receptor; in assay [1]) were 24.5 nM and 2.33 nM, respectively. For `CN(CCc1ccccc1)C(=O)Cc1cc(/C=C/C(=O)O)cc2c(Oc3ccccc3)cccc12` the same measures were 20 nM and 2 nM. For `CN(CCc1ccccc1)C(=O)Cc1cc(/C=C/C(=O)O)cc2c(-c3ccccc3)cccc12` the same measures were 50 nM and 1 nM. For `CN(CCc1ccccc1)C(=O)Cc1cc(CCCCC(=O)O)cc2c(OCc3ccccc3)cccc12` the same measures were 100 nM and 2.8 nM. Consider `CN(CCc1ccccc1)C(=O)Cc1cc(C(=O)O)cc2c(Oc3ccccc3)cccc12`, for which the results for the 50% inhibitory concentration (IC50) (on Leukotriene B4 receptor; in assay [1]) were 25 nM and 1.5 nM, respectively. Take `CN(CCc1ccccc1)C(=O)Cc1cc(/C=C/C2N=NN=N2)cc2c(OCc3ccccc3)cccc12`: the figures for the IC50 (on Leukotriene B4 receptor; in assay [1]) were 5 nM and 3 nM, respectively. Taken in the same sequence, the figures for `CN(CCc1ccccc1)C(=O)Cc1cc(/C=C/C(=O)O)cc2c(OCc3ccccc3)cccc12` were 3.55 nM and 0.58 nM. With `CN(CCc1ccccc1)C(=O)Cn1cc(CC(=O)O)c2cc(OCc3ccccc3)ccc21`, the IC50 in assay [1] was found to be 30 nM.

`CN(CCc1ccccc1)C(=O)Cc1cc(/C=C/C=C/C(=O)O)cc2c(OCc3ccccc3)cccc12`: the IC50 at Leukotriene B4 receptor is 8 nM; in assay [1] it was 1 nM.

For the compound `CN(CCc1ccccc1)C(=O)Cn1cc(/C=C/C(=O)O)c2ccc(OCc3ccccc3)cc21`, the IC50 in assay [1] is above 300 nM. As to `CN(CCc1ccccc1)C(=O)Cn1cc(/C=C/C(=O)O)c2cc(OCc3ccccc3)ccc21`, the half-inhibitory concentration (IC50) is recorded as 53 nM on Leukotriene B4 receptor and 4.3 nM in assay [1]. For the compound `CN(CCc1ccccc1)C(=O)Cc1cc(CCC(=O)O)cc2c(-c3ccccc3)cccc12`, the concentration for half-maximal inhibition (IC50) turned out to be 40 nM at Leukotriene B4 receptor and 3.5 nM in assay [1]. In turn, `CN(CCc1ccccc1)C(=O)Cn1cc(C=O)c2cc(OCc3ccccc3)ccc21` gave a half-maximal inhibitory concentration (IC50) in assay [3] above 300 nM. Consider `CN(CCc1ccccc1)C(=O)Cc1cc(C(=O)O)cc2c(-c3ccccc3)cccc12`, for which the values for the IC50 (at Leukotriene B4 receptor; in assay [1]) were 8.25 nM and 0.45 nM, respectively.
